Literature values as cited in patent US5688981A, “Ethylenediaminetriacetic acid and N-acyl ethylenediaminetriacetic acid silver chelating agents and surfactants” (Hampshire Chemical Corp., priority 1996, dated 1997).

Columns and labels:
[1] = test system: protein
[2] = background

Row | SMILES | concentration with propensity towards protein precipitation [1] | toxicity on oral administration [2]
1 | O=C([O-])CC(O)(CC(=O)[O-])C(=O)[O-].[Ag+].[Ag+].[Ag+] [silver citrate] | 10^-4 M | –
2 | [Ag][I] [silver iodide] | 10^-4 M | –
3 | CC(O)C(=O)[O-].[Ag+] (centres unmarked) [silver lactate] | 10^-4 M | –
4 | O=[N+]([O-])[O-].[Ag+] [silver nitrate] | – | can cause severe gastroenteritis which may be fatal
5 | [Ag+].[Ag+].[O-2] [silver oxide] | 10^-4 M | –
